What all share (type): functional
Assay [1] relates to SUD4. The assay is described as follows: Growth inhibition of human SU-DHL-4 cells at 0.033 uM incubated for 3 days (reference value: 2%). The note with it: SU-DHL-4, 72 h, time 3 day, read-out: GI.
Assay [2] concerns SUD4. Briefly: Growth inhibition of human SU-DHL-4 cells at 0.017 uM incubated for 3 days (reference value: 2%). The note with it: SU-DHL-4, 72 h, time 3 day, read-out: GI.
In assay [3] the test system is SUD4. Briefly: Growth inhibition of human SU-DHL-4 cells at 0.003 uM incubated for 3 days (reference value: 2%). The note with it: SU-DHL-4, 72 h, time 3 day, read-out: GI.
In assay [4] the test system is SUD4. Briefly: Growth inhibition of human SU-DHL-4 cells at 0.33 uM incubated for 3 days (reference value: 2%). The note with it: SU-DHL-4, 72 h, time 3 day, read-out: GI.
The subject of assay [5] is SUD4. Briefly: Growth inhibition of human SU-DHL-4 cells at 0.17 uM incubated for 3 days (reference value: 2%). The note with it: SU-DHL-4, 72 h, time 3 day, read-out: GI.
Assay [6] deals with SUD4. Briefly: Growth inhibition of human SU-DHL-4 cells at 0.017 uM incubated for 3 days (reference value: -1%). The note with it: SU-DHL-4, 72 h, time 3 day, read-out: GI.
The test system of assay [7] is SUD4. Briefly: Growth inhibition of human SU-DHL-4 cells at 0.033 uM incubated for 3 days (reference value: -1%). The note with it: SU-DHL-4, 72 h, time 3 day, read-out: GI.
The subject of assay [8] is SUD4. Briefly: Growth inhibition of human SU-DHL-4 cells at 0.003 uM incubated for 3 days (reference value: -1%). The note with it: SU-DHL-4, 72 h, time 3 day, read-out: GI.
Assay [9] deals with SUD4. Briefly: Growth inhibition of human SU-DHL-4 cells at 0.33 uM incubated for 3 days (reference value: -1%). The note with it: SU-DHL-4, 72 h, time 3 day, read-out: GI.
The test system of assay [10] is SUD4. The assay is described as follows: Growth inhibition of human SU-DHL-4 cells at 0.17 uM incubated for 3 days (reference value: -1%). The note with it: SU-DHL-4, 72 h, time 3 day, read-out: GI.
For assay [11], the system named is OCI-Ly10. The assay is described as follows: Growth inhibition of human OCILY10 cells at 0.17 uM incubated for 3 days (Rvb= -2%). The note with it: OCI-Ly10, 72 h, time 3 day, read-out: GI.
Assay [12] concerns OCI-Ly10. The assay is described as follows: Growth inhibition of human OCILY10 cells at 0.33 uM incubated for 3 days (reference value: -2%). The note with it: OCI-Ly10, 72 h, time 3 day, read-out: GI.
Assay [13] deals with OCI-Ly10. The assay is described as follows: Growth inhibition of human OCILY10 cells at 0.003 uM incubated for 3 days (reference value: -2%). The note with it: OCI-Ly10, 72 h, time 3 day, read-out: GI.
Assay [14] concerns OCI-Ly10. Briefly: Growth inhibition of human OCILY10 cells at 0.017 uM incubated for 3 days (reference value: -2%). The note with it: OCI-Ly10, 72 h, time 3 day, read-out: GI.
In assay [15] the test system is OCI-Ly10. Briefly: Growth inhibition of human OCILY10 cells at 0.033 uM incubated for 3 days (reference value: -2%). The note with it: OCI-Ly10, 72 h, time 3 day, read-out: GI.
In assay [16] the test system is OCI-Ly10. The assay is described as follows: Growth inhibition of human OCILY10 cells at 1.7 uM incubated for 3 days (Rvb= -3%). The note with it: OCI-Ly10, 72 h, time 3 day, read-out: GI.
Assay [17] relates to OCI-Ly10. The assay is described as follows: Growth inhibition of human OCILY10 cells at 3.3 uM incubated for 3 days (Rvb= -3%). The note with it: OCI-Ly10, 72 h, time 3 day, read-out: GI.
The subject of assay [18] is OCI-Ly10. Briefly: Growth inhibition of human OCILY10 cells at 0.003 uM incubated for 3 days (Rvb= -3%). The note with it: OCI-Ly10, 72 h, time 3 day, read-out: GI.
The test system of assay [19] is OCI-Ly10. Briefly: Growth inhibition of human OCILY10 cells at 0.017 uM incubated for 3 days (Rvb= -3%). The note with it: OCI-Ly10, 72 h, time 3 day, read-out: GI.
Assay [20] has as its system OCI-Ly10. The assay is described as follows: Growth inhibition of human OCILY10 cells at 0.033 uM incubated for 3 days (Rvb= -3%). The note with it: OCI-Ly10, 72 h, time 3 day, read-out: GI.

Each structure is given as a SMILES string.

`CC#CC(=O)N1CCC[C@H]1c1nc(-c2ccc(C(=O)Nc3ccccn3)cc2)c2c(N)nccn12` [ACALABRUTINIB]: the inhibition of growth at 0.033 µM with SUD4 [1] is 2%; with SUD4 [7], -3%; in the assay with OCI-Ly10 [15] it was 92%; in the assay with OCI-Ly10 [20] it was 88%. Also, the inhibition of growth at 0.017 µM with SUD4 [2] is 2%; in the assay on SUD4 [6] it was -1%; in the assay on OCI-Ly10 [14], 77%; with OCI-Ly10 [19] it was 71%. Moreover, the inhibition of growth at 0.003 µM in the assay with SUD4 [3] is 2%; in the assay on SUD4 [8], -1%; with OCI-Ly10 [13], 16%; in the assay with OCI-Ly10 [18], 13%. The results for the inhibition of growth at 0.33 µM in the assay with SUD4 [4], in the assay on SUD4 [9] and in the assay on OCI-Ly10 [12] were 2%, -1% and 115%, respectively. The inhibition of growth at 0.17 µM in the assay on SUD4 [5] was 2%; in the assay with SUD4 [10], -3%; with OCI-Ly10 [11], 111%. Moreover, the inhibition of growth at 1.7 µM in the assay on OCI-Ly10 [16] is 108%. The inhibition of growth at 3.3 µM in the assay with OCI-Ly10 [17] was found to be 113%.

The values above are taken from ChEMBL document CHEMBL5244269, “Improving metabolic stability and removing aldehyde oxidase liability in a 5-azaquinazoline series of IRAK4 inhibitors” (Bioorg Med Chem, 2020).
